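96-well plates; 48 h exposure; 5 concentrations. Endpoints by linear interpolation between flanking doses. Not reached: highest tested concentration assigned. GI50: concentration for 50% inhibition of growth.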 The source made the active and inactive calls. Cut-off read from the data, not from the text of the source: active = GI50 up to about 1.1 µM and inactive = higher.
How the values were obtained:
Assay in all cases: growth of human tumour cells (NCI), 48 h
786-0 = tested on: 786-0
SF-295 = tested on: SF-295
OVCAR-3 = tested on: OVCAR-3
K562 = tested on: K562
COLO 205 = tested on: COLO 205
SR = tested on: SR
LOX IMVI = tested on: LOX IMVI
UO-31 = tested on: UO-31
TK-10 = tested on: TK-10
CCRF-CEM = tested on: CCRF-CEM
SK-OV-3 = tested on: SK-OV-3
RPMI-8226 = tested on: RPMI-8226
HCC 2998 = tested on: HCC 2998
HOP-92 = tested on: HOP-92
A549 = tested on: A549
SN12C = tested on: SN12C
OVCAR-5 = tested on: OVCAR-5
NCI-H23 = tested on: NCI-H23
A498 = tested on: A498

Measured: GI50

O=c1oc2c3ccc4ccccc4c3n(CCN3CCOCC3)c2c2ccccc12
inactive: 786-0 6.44 µM | SF-295 6.38 µM | OVCAR-3 > 100 µM | K562 3.89 µM | COLO 205 > 100 µM | SR 1.15 µM | LOX IMVI 4.06 µM | TK-10 > 100 µM | CCRF-CEM 1.48 µM | SK-OV-3 > 100 µM | RPMI-8226 46.5 µM | HCC 2998 > 100 µM | HOP-92 > 100 µM | A549 5.42 µM
active: UO-31 0.622 µM

COC1OC(COCc2ccc(Cl)cc2)C(OCc2ccc(Cl)cc2)C1O (stereo not given)
inactive: 786-0 15 µM | SF-295 18 µM | OVCAR-3 19.7 µM | K562 16.2 µM | COLO 205 19 µM | SN12C 14.9 µM | OVCAR-5 16.1 µM | LOX IMVI 16.9 µM | UO-31 15.1 µM | TK-10 25.5 µM | NCI-H23 15.8 µM | CCRF-CEM 19.4 µM | SK-OV-3 33.9 µM | RPMI-8226 23.9 µM | HCC 2998 17.7 µM | HOP-92 11.2 µM | A549 17.3 µM

O=C1Nc2nc3ccccc3n2N=C2CCCC12 (stereo not given)
inactive: 786-0 > 100 µM | SF-295 > 100 µM | OVCAR-3 > 100 µM | K562 > 100 µM | COLO 205 > 100 µM | SN12C > 100 µM | A498 > 100 µM | OVCAR-5 > 100 µM | LOX IMVI > 100 µM | UO-31 > 100 µM | TK-10 > 100 µM | NCI-H23 > 100 µM | CCRF-CEM > 100 µM | SK-OV-3 > 100 µM | RPMI-8226 > 100 µM | HCC 2998 > 100 µM | A549 > 100 µM

CCCCCCC(C)OC(=O)/C=C(\CC(=O)OC(C)CCCCCC)C(=O)OC(C)CCCCCC (stereo not given)
inactive: 786-0 > 100 µM | SF-295 > 100 µM | OVCAR-3 > 100 µM | COLO 205 > 100 µM | SN12C > 100 µM | A498 > 100 µM | OVCAR-5 > 100 µM | LOX IMVI > 100 µM | UO-31 > 100 µM | TK-10 > 100 µM | NCI-H23 > 100 µM | SK-OV-3 > 100 µM | RPMI-8226 > 100 µM | HCC 2998 > 100 µM | HOP-92 > 100 µM | A549 > 100 µM

CC(C)=CC(=O)C1c2cccc(O)c2C(=O)c2c(O)cc(C)cc21 (stereo not given)
inactive: 786-0 5.06 µM | SF-295 1.84 µM | OVCAR-3 1.99 µM | K562 2.65 µM | COLO 205 1.79 µM | SN12C 5.71 µM | A498 10.7 µM | OVCAR-5 2.34 µM | LOX IMVI 1.86 µM | UO-31 2.09 µM | TK-10 2.42 µM | NCI-H23 2.44 µM | CCRF-CEM 2.55 µM | SK-OV-3 2.81 µM | RPMI-8226 3.61 µM | HCC 2998 1.2 µM | HOP-92 2.75 µM | A549 1.92 µM

O=C(CC(=O)C(F)(F)F)c1csc2ccccc12
inactive: 786-0 36.7 µM | SF-295 10.4 µM | OVCAR-3 40.9 µM | K562 24.8 µM | COLO 205 38.5 µM | SR 17.5 µM | SN12C 25 µM | OVCAR-5 53 µM | LOX IMVI 25 µM | UO-31 27.9 µM | TK-10 4.28 µM | NCI-H23 29.4 µM | CCRF-CEM 20.4 µM | SK-OV-3 18 µM | RPMI-8226 24.8 µM | HCC 2998 48.9 µM | A549 62.2 µM

— ChEMBL document CHEMBL1201862, “PubChem BioAssay data set” (2004)
